{"source": "patent US20230139826A1", "about": "(NONO INC., priority 2020, published 2023)", "key": {"[1]": {"experiment": "In-vitro peptide degradation assay in human plasma with rt-PA or TNK", "quoted_text": "To determine nerinetide stability in the presence of rt-PA in plasma, we use an in-vitro peptide content analysis by HPLC. In brief, Nerinetide or D-Tat-L-2B9c were spiked into rat or human plasma at a concentration of 65 ug/ml. rt-PA was added after the baseline time-point was collected, at the specified concentrations. rt-PA administration followed the clinical dosing approach [10% bolus dose followed by 60-mins infusion (90% of the dose)], using a Harvard apparatus pump. Sample collection following IV bolus was performed at 5 min, 15 min, 30 min and 45 min post-dose. At each time point, approximately 100 uL of plasma was collected from each vial using a fresh syringe. Plasma was then collected and stored at -80° C. until analyzed.\nNerinetide or D-Tat-L2B9c was extracted by precipitation with 1M perchloric acid. All analyses were performed on an Agilent 1260 Infinity Quaternary LC System (Agilent Technologies, Santa Clara, Calif., USA) and on a 25 cm [YMAA12S052546WT] C-18 RP-HPLC column (Agilent Technologies, Santa Clara, Calif., USA). The column was equilibrated with 10% acetonitrile with 0.1% TFA at 40° C. The eluent flow was 1.5 ml/min (gradient from 10% to 35% acetonitrile in 0.1% TFA) The UV trace was recorded at 220 nm. Concentrations of nerinetide or D-Tat-L-2B9c were derived from calibration standards obtained by spiking the agent into plasma."}, "[2]": {"experiment": "In-vivo pharmacokinetic analysis in rats", "conditions": "rat", "experimental": "Since the effect of nerinetide in the ESCAPE-NA1 trial was negated by alteplase, we next evaluated the effects of alteplase on pharmacokinetics (PK) of nerinetide in rats. Alteplase was administered at 0.9 mg/kg (human dose) and at 5.4 mg/kg (6 times the human dose) in an infusion that simulated the clinical protocol (10% bolus followed by a 60 min infusion of the remainder). Nerinetide was administered as an intravenous bolus at the start of the alteplase infusion at 7.6 mg/kg.\nThe goal of these study was to evaluate nerinetide PK parameter changes when in the presence of circulating rt-PA and plasmin. Male naïve rats received an intravenous administration of either nerinetide alone, nerinetide plus rt-PA (0.9 mg/kg) or nerinetide plus rt-PA (5.4 mg/kg). Sample collection was performed pre-dose and 0 min, 5 min, 10 min, 20 min, 50 min post-dose. At each time point, approximately 300 uL of blood was sampled from each animal using a fresh syringe. Blood samples were collected in previously prepared Eppendorf tubes [30 ul of EDTA 2.5%] and centrifuged for 20 minutes to separate plasma and cell components.\nPlasma samples were stored at −80° C. until analyzed.\nChanges in peptide concentration were analyzed using a two-way repeated measures ANOVA, followed by the Sidak correction for multiple comparisons. The pharmacokinetic (PK) parameters of peak plasma concentration (Cmax) and the area under the plasma concentration-time curve from 0 to last measured concentration (AUC) were obtained with PKsolver Software (USA) using a non-compartmental analysis and employing a linear interpolation. For stroke studies, differences between groups were tested using a One-way ANOVA with a Tukey's correction for multiple comparisons. […] Values for animals experiencing premature death due to any reason including subarachnoid hemorrhage or hemorrhagic transformation were imputed to reflect the worst neurological score and the maximum stroke volume achieved across all animals."}, "[3]": {"target": "PDZ2 domain of PSD-95 (Homo sapiens, UniProt P78352)", "sequence (P78352 160-246 limits assumed)": "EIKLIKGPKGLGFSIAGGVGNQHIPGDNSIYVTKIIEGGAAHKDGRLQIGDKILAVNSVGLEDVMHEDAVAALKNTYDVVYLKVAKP", "experiment": "Direct ELISA of biotinylated peptides to PSD-95 PDZ2", "format": "binding", "conditions": "biotinylated peptides, triplicate; read-out: EC50, direct ELISA binding to PSD-95 PDZ2 domain", "experimental": "ELISA plates were coated with 1 ug/ml PSD95PDZ2 in 50 mM bicarbonate buffer overnight at 4 C. The plate was blocked in 2%BSA in PBST (0.05%) for 2 h at room temperature. It was then incubated with biotinylated ligand (nerinetide, D-tat-L2B9c or D-Tat-L-AA) at the indicated concentrations (FIG. 4A) and incubated overnight at 4 C. After washing with PBS-T, the plate was incubated for 30 min with (1:3000) SA-HRP, washed again, and incubated with TMB solution for 10 min. The reaction was stopped with 100 ul H2504. Absorbance was determined at 450 nm with the synergy H1 reader."}, "[4]": {"tested_on": "transient middle cerebral artery occlusion (tMCAO)", "experiment": "Rat transient middle cerebral artery occlusion model", "quoted_text": "Nerinetide and lodoxamide was administered to rats intravenously as a bolus injection, 60 minutes after tMCAo. […] Bars in A and represent mean±SD, with all individual data points plotted. Asterisks in A indicate P<0.01 when compared to the vehicle group (one-way ANOVA post hoc Tukey's correction for multiple comparisons test) N=12-14 animals/group. […] Significant differences are indicated with an asterisk when compared to the vehicle group (Kruskal-Wallis analysis of variance on ranks with a post-hoc Dunn's correction for multiple comparisons test, *P<0.01). Vehicle: PBS alone. Scrambled: ADA peptide incapable of binding PSD-95.\nAll animals subjected to surgery had their physiological parameters measured prior to MCA occlusion. PE-50 polyethylene tubing was inserted into the right femoral artery for invasive monitoring of mean arterial blood pressure and for obtaining blood samples to measure blood gases (pH, PaO2, and PaCO2), electrolytes (Na^+, K^+, iCa) and plasma glucose at baseline [Blood gas cartridge CG8+, VetScan i-STAT 1 Analyzer].\nInfarct volumes and hemispheric swelling were evaluated at 24 hours post-stroke from standard brain slices stained with 2% 2,3,5-triphenyltetrazolium chloride (Sigma Aldrich, St. Louis, Md., USA)(7). Neurologic scoring was conducted at 24 hours after stroke onset using forelimb-placing tests comprising of frontal visual placing, sideways visual placing, frontal tactile placing, sideways tactile placing, and vertical tactile placing (scores range from 0-2 in each component for a maximum of 12 indicating maximum impairment."}, "[5]": {"tested_on": "acute ischemic stroke", "experiment": "ESCAPE-NA1 trial: treatment emergent serious adverse events", "format": "in vivo, human", "description": "The primary outcome was good outcome as defined by a score of 0-2 on the modified Rankin scale (mRS) (range, 0 [no symptoms] to 6 [death]) for the assessment of neurologic functional disability^2 assessed in person or, if an in-person visit was not possible, by telephone, at 90 days after randomization by personnel certified in the scoring of the mRS. Secondary efficacy outcomes were neurological outcome as defined by the NIHSS of 0-2, functional independence in activities of daily living as defined by a Barthel Index score of ≥95, excellent functional outcome as defined by a score of 0-1 on the mRS and mortality rates. Tertiary outcomes included assessments of stroke volumes on 24-hour imaging (MR or CT brain). Prespecified safety outcomes were all serious adverse events and mortality. Imaging interpretation was conducted at a central core laboratory and clinical data were verified by independent monitors. Infarct volumes were measured by summation of manual planimetric demarcation of infarct on axial imaging (636/1099 (57.9%) on CT and 463/1099 (42.1%) on MRI).\nThe safety population included all patients who received any amount of study drug (n=1101). There were no differences in important safety outcomes. (Table 3)."}, "[6]": {"experiment": "PK dose-separation study in cynomolgus macaques", "format": "in vivo, cynomolgus macaques (Macaca fascicularis)", "conditions": "macaque", "experimental": "We conducted further PK studies to probe the necessary dose-separation interval to mitigate degradation. These studies were conducted in cynomolgus macaques (Macaca fascicularis) to maximize their relevance to humans. Nerinetide was given as a 10-minute intravenous infusion at a dose of 2.6 mg/kg. This dosing regimen was neuroprotective in macaques exposed to stroke by LVO (Cook et al., Nature 483, 213-217 (2012)) and was used in both the Phase 2 ENACT trial (Lancet Neurol 11, 942-950 (2012)) and the ESCAPE-NA1 trial (Lancet 395, 878-887 (2020)). We examined the scenarios in which alteplase administration was started simultaneously with the nerinetide infusion start, at the end of the 10-minute nerinetide infusion, or 10 minutes after the end of nerinetide infusion. Alteplase (1 mg/kg) was administered through a separate intravenous line as a 10% bolus, followed by an infusion of the remaining 90% over 1 hour, as per its clinical use."}, "[7]": {"conditions": "nerinetide 7.6 mg/kg iv bolus with alteplase 0.9 mg/kg (human dose)"}, "[8]": {"conditions": "nerinetide 7.6 mg/kg iv bolus with alteplase 5.4 mg/kg"}, "[9]": {"conditions": "alteplase started at the end of the nerinetide infusion"}}, "note": "Residues, ends and D or L forms follow the SMILES beside them."}
{"smiles": "CC[C@H](C)[C@H](NC(=O)[C@H](CO)NC(=O)[C@H](CO)NC(=O)[C@H](CC(C)C)NC(=O)[C@H](CCCCN)NC(=O)[C@H](CCCN=C(N)N)NC(=O)[C@H](CCCN=C(N)N)NC(=O)[C@H](CCCN=C(N)N)NC(=O)[C@H](CCC(N)=O)NC(=O)[C@H](CCCN=C(N)N)NC(=O)[C@H](CCCN=C(N)N)NC(=O)[C@H](CCCCN)NC(=O)[C@H](CCCCN)NC(=O)[C@H](CCCN=C(N)N)NC(=O)CNC(=O)[C@@H](N)Cc1ccc(O)cc1)C(=O)N[C@@H](CCC(=O)O)C(=O)N[C@@H](CO)C(=O)N[C@@H](CC(=O)O)C(=O)N[C@H](C(=O)O)C(C)C", "note": "[Nerinetide] (H-YGRKKRRQRRRKLSSIESDV-OH)", "values": [{"measurement": "elimination in human plasma with tenecteplase (TNK)", "setting": "[1]; TNK 6.25 ug/ml", "result": "rapid elimination"}, {"measurement": "stability alone in human plasma", "setting": "[1]; absence of alteplase", "result": "stable"}, {"measurement": "degradation in human plasma with alteplase", "setting": "[1]; rt-PA 135 ug/ml", "result": "rapid degradation"}, {"measurement": "half-life", "setting": "[2]; male, plasma, intravenous, 7.6 mg/kg, human equivalent concentrations", "result": "5 to 10", "unit": "min"}, {"measurement": "change of AUC of nerinetide", "setting": "[2]; [7]", "result": "non-significant reduction"}, {"measurement": "change of Cmax of nerinetide", "setting": "[2]; [7]", "result": "non-significant reduction"}, {"measurement": "lowering of the mean AUC of nerinetide", "setting": "[2]; [8]", "result": 44, "unit": "%"}, {"measurement": "lowering of the mean Cmax of nerinetide", "setting": "[2]; [8]", "result": 49.5, "unit": "%"}, {"measurement": "EC50", "setting": "[3]", "result": 93, "unit": "nM"}, {"measurement": "neurological function 24 hours after tMCAo", "setting": "[4]; doses as low as 0.25 mg/kg", "result": "improvement"}, {"measurement": "infarct volume 24 hours after tMCAo", "setting": "[4]; doses as low as 0.25 mg/kg, vs vehicle", "result": "significant reduction"}, {"measurement": "efficacy in tMCAo", "setting": "[4]; doses of as little as 0.025 mg/kg", "result": "effective"}, {"measurement": "efficacy in tMCAo", "setting": "[4]; doses up to at least 25 mg/kg", "result": "effective"}, {"measurement": "reducing infarction volume, hemispheric swelling and improving neurological scores", "setting": "[4]; rat tMCAO, comparison of the two peptides", "result": "equally effective"}, {"measurement": "dose with the highest efficacy", "setting": "[4]; rat tMCAo dose-response", "result": "about 15 mg/kg"}, {"measurement": "effective dosage range (reducing infarction size and neurologic deficit)", "setting": "[4]; rat tMCAo, iv bolus 60 minutes after tMCAo, with lodoxamide", "result": "0.025-25 mg/kg"}, {"measurement": "Angioedema, patients number (proportion)", "setting": "[5]; nerinetide n = 547", "result": "1 (0.2%)"}, {"measurement": "Congestive cardiac failure, patients number (proportion)", "setting": "[5]; nerinetide n = 547", "result": "9 (1.6%)"}, {"measurement": "Deep vein thrombosis/pulmonary embolism, patients number (proportion)", "setting": "[5]; nerinetide n = 547", "result": "3 (0.5%)"}, {"measurement": "Hives/Urticaria/Pruritis, number of patients", "setting": "[5]; nerinetide n = 547", "result": 0}, {"measurement": "Hypotension, patients number (proportion)", "setting": "[5]; nerinetide n = 547", "result": "7 (1.3%)"}, {"measurement": "Ischaemic stroke (new onset/recurrent), patients number (proportion)", "setting": "[5]; nerinetide n = 547", "result": "18 (3.3%)"}, {"measurement": "Pneumonia, patients number (proportion)", "setting": "[5]; nerinetide n = 547", "result": "25 (4.6%)"}, {"measurement": "Stroke-in-evolution (progression), patients number (proportion)", "setting": "[5]; nerinetide n = 547", "result": "36 (6.6%)"}, {"measurement": "Symptomatic ICH, patients number (proportion)", "setting": "[5]; nerinetide n = 547", "result": "19 (3.5%)"}, {"measurement": "Urinary tract infection, patients number (proportion)", "setting": "[5]; nerinetide n = 547", "result": "8 (1.5%)"}, {"measurement": "Angioedema, RR (95% CI) unadjusted", "setting": "[5]; nerinetide vs placebo", "result": "1.01 (0.06-16.1)"}, {"measurement": "Any serious adverse Event, RR (95% CI) unadjusted", "setting": "[5]; nerinetide vs placebo", "result": "0.92 (0.79-1.09)"}, {"measurement": "Congestive cardiac failure, RR (95% CI) unadjusted", "setting": "[5]; nerinetide vs placebo", "result": "2.28 (0.71-7.36)"}, {"measurement": "Deep vein thrombosis/pulmonary embolism, RR (95% CI) unadjusted", "setting": "[5]; nerinetide vs placebo", "result": "0.38 (0.1-1.42)"}, {"measurement": "Hypotension, RR (95% CI) unadjusted", "setting": "[5]; nerinetide vs placebo", "result": "7.09 (0.88-57.4)"}, {"measurement": "Ischaemic stroke (new onset/recurrent), RR (95% CI) unadjusted", "setting": "[5]; nerinetide vs placebo", "result": "0.91 (0.49-1.70)"}, {"measurement": "Pneumonia, RR (95% CI) unadjusted", "setting": "[5]; nerinetide vs placebo", "result": "1.49 (0.81-2.73)"}, {"measurement": "Stroke-in-evolution (progression), RR (95% CI) unadjusted", "setting": "[5]; nerinetide vs placebo", "result": "0.85 (0.55-1.30)"}, {"measurement": "Symptomatic ICH, RR (95% CI) unadjusted", "setting": "[5]; nerinetide vs placebo", "result": "0.80 (0.44-1.45)"}, {"measurement": "Urinary tract infection, RR (95% CI) unadjusted", "setting": "[5]; nerinetide vs placebo", "result": "1.15 (0.42-3.17)"}, {"measurement": "rates of adverse events compared with placebo", "setting": "[5]; patients treated with nerinetide", "result": "no significant differences"}, {"measurement": "Any serious adverse Event, patients number (proportion)", "setting": "[5]; safety population, nerinetide n = 547", "result": "181 (33.1%)"}, {"measurement": "degradation of Cmax or AUC by alteplase", "setting": "[6]; alteplase 10 minutes after the end of the 10-min nerinetide infusion", "result": "eliminated degradation of Cmax or AUC"}, {"measurement": "reduction in the AUC of nerinetide", "setting": "[6]; [9]", "result": 32.3, "unit": "%"}, {"measurement": "reduction of the Cmax of nerinetide", "setting": "[6]; [9]", "result": 23.1, "unit": "%"}, {"measurement": "reduction in the AUC of nerinetide", "setting": "[6]; alteplase started simultaneously", "result": 53.9, "unit": "%"}, {"measurement": "reduction of the Cmax of nerinetide", "setting": "[6]; nerinetide 2.6 mg/kg 10-minute infusion, alteplase 1 mg/kg started simultaneously", "result": 47.4, "unit": "%"}]}
